Assay results published in US6603023B2 (priority 1996, dated 2003).
Values joined by “and” are separate entries in the source; they are usually repeats but may differ in a detail not shown here. Equal values may be shown once. Read-outs that look alike come from different tables or passages of the source.

Experiments:
murine leukemic P388/0 = assay: XTT cytotoxicity, P388/0; type: cell-based; conditions: Table 1C; XTT, 72 h; read-out: IC50
Description: (§1) The DC-3F hamster lung fibroblast cell line and its actinomycin D-selected sublines (DC-3F/ADII and DC-3F/ADX) were obtained from the Memorial Sloan-Kettering Cancer Center (MSKCC).
(§2) The drug-resistant cell lines were continuously cultured in the presence of the selecting agent, AD, DX, VBL or VM to maintain the drug resistant phenotypes. […] All cells were cultured in RPMI 1640-10% FBS at 37° C. 5% CO2 (see below).
The cells were cultured at an initial density of 5×10^4 cells/mL. They were maintained in a 5% CO2-humidified atmosphere at 37° C. in RPMI-1640 medium (GIBCO-BRL, Gaithersburg, Md.) containing penicillin (100 U/mL), streptomycin ([…]) (GIBCO-BRL) and 10% heat inactivate fetal bovine serum. Culture for cell suspension (such as for CCRF-CEM, P388 and sublines), were performed by the XTT-microculture tetrazonium method (Scudiero, D. A. et al., Cancer Res. 1988, 48, 4827-4833) in duplicate in 96-well microtiter plates.
2′,3′-Bis(methoxy-4-nitro-5-sufophenyl)-5-[(phenylamino)carbonyl]2H-tetrazolium hyudroxide (XTT) was prepared at 1 mg/mL in prewarmed (37° C.) medium without serum. Phenazine methosulfate (PMS) and fresh XTT were mixed together to obtain 0.025 mM PMS-XTT solution (25 μL of the stock 5 mM PMS was added per 5 mL of 1 mg/mL XTT). Following a 72 h incubation, 50 μL of the assay aliquots were added to each well of the cell culture. After incubation at 37° C. for 4 h, absorbance at 450 nm and 630 nm was measured with a microplate reader (EL340, Bio-Tek Instruments, Inc., Winooski, Vt.).

[1] = test system: A549 Human Lung Carcinoma; assay: A549 xenograft; type: in vivo, nude mice; conditions: for Average Tumor Size, Day 11: control 96; for Average Tumor Size, Day 15: control 306; for Average Tumor Size, Day 17: control 553; for Average Body Weight, Day 7: initial weight
[2] = test system: CCRF-CEM human T-cell acute lymphoblastic leukemia cell line; assay: XTT cytotoxicity (cell growth inhibition), CCRF-CEM
In short: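 Suspension leukemic cells (CCRF-CEM, P388 and drug-resistant sublines kept under the selecting agent) were seeded at 5×10^4 cells/mL in RPMI-1640 with 10% FBS at 37 °C. After 72 h drug exposure in duplicate, PMS-XTT was added for 4 h. Absorbance was read at 450 and 630 nm.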

[3] = test system: PC-3 Human Prostate Carcinoma; assay: PC-3 xenograft; type: in vivo, nude mice; conditions: for Therapeutic effect Rank Order: PC-3; for Average Body Weight, Day 5: initial weight
[4] = test system: human neuroblastoma SK-N-As; assay: SRB cytotoxicity, SK-N-As; type: cell-based; conditions: Table 1C; SRB, 72 h; read-out: IC50
Description: as §1, §2
The cytotoxicity of the drug toward the monolayer cell cultures (such as DC-3F, MCF-7, SK-N-As and sublines) was determined in 96-well microtiter plates by the SRB method as described by Skehan and co-workers (Skehan, P., et al., J. Natl. Cancer Inst. 1990, 82, 1107-1112) for measuring the cellular protein content. Cultures were fixed with trichloroacetic acid and then stained for 30 min with 0.4% suforhodamine B dissolved in 1% acetic acid. Unbound dye was removed by acetic acid washes, and the protein-bound dye was extracted with an unbuffered Tris base (tris(hydroxy-methyl)aminomethane) for determination of absorbance at 570 nm in a 96-well microtiter plate reader. The experiments were carried out in duplicate. Each run entailed six to seven concentrations of the tested drugs. Data were analyzed with the median-effect plot (Chou, T.-C. & Talalay, P. T. (1984) Adv. Enzyme Regul. 22, 27-55) using a previously described computer program (Chou, J., & Chou T.-C. 1987, Dose-effect analysis with microcomputers: Quantitation of ED50, synergism, antagonism, low-dose risk, reception-ligand binding and enzyme kinetics, IBM-PC software and manual, Biosoft, Cambridge, U.K.).

B16 Melanoma = type: in vivo, B6D2F1 mice
Description: Body weight was determined at 0, 2, 4, 6, 8, 10 and 12 days. […] Injections were started on day 1. […] Body weight was determined at 0, 2, 4, 6, 8, 10 and 12 days. […] Injections were started on day 1.

[5] = A549 Lung, dEpoB 40 mg/kg Q2D x 3, Taxol 15 mg/kg Q2D x 3
[6] = Q2D x 3, 6 hr i.v. infusion: dEpoB 40, Taxol 24 mg/kg
[7] = Q2D x 3: dEpoB 30 mg/kg 18 hr i.v. infusion, Taxol 15 mg/kg 6 hr infusion, VBL 2 and VP-16 25 mg/kg i.v. inj
[8] = dEpoB 50 mg/kg Q2D x 3, 6 hr i.v. infusion
[9] = 6 hr i.v. infusion: dEpoB 40, Taxol 24 mg/kg
[10] = PC-3 Prostate, dEpoB 40 mg/kg Q2D x 3, Taxol 15 mg/kg Q2D x 3
[11] = dEpoB 30 mg/kg 18 hr i.v. infusion, Taxol 16 mg/kg 6 hr infusion, VBL 2 and VP-16 25 mg/kg i.v. inj
[12] = dEpoB 50 mg/kg, 6 hr i.v. infusion

C/C1=C/C[C@@H](/C(C)=C/c2csc(C)n2)OC(=O)C[C@H](O)C(C)(C)C(=O)[C@H](C)[C@@H](O)[C@@H](C)CCC1 [Desoxyepothilone B, desoxyepothilone B]
IC50 (murine leukemic P388/0): 6.8 nM
Therapeutic effect Rank Order ([1]; A549, i.v. infusion): Taxol ®, dEpoB, VBL > VP-16
Lowest Average Tumor Size (T/C) [1, 5]: 0.01 T/C
Tumor Disappearance [1, 5]: 1/3
Therapeutic Effects dEpoB vs Taxol ([1]; A549 Lung, dEpoB 40 mg/kg Q2D x 3 vs Taxol 15 mg/kg Q2D x 3): ≅
Average Body Weight (change), Day 11 [1, 6]: -1.6 g
Average Body Weight (change), Day 13 [1, 6]: -3.2 g
Average Body Weight (change), Day 15 [1, 6]: -2.4 g
Tumor Disappearance [1, 6]: 1/3
Average Tumor Size, Day 11 [1, 6]: 31 mm^3
Average Tumor Size, Day 15 [1, 6]: 4 mm^3
Average Tumor Size, Day 17 [1, 6]: 4 mm^3
Average Body Weight (change), Day 11 [1, 7]: -2.0 g
Average Body Weight (change), Day 13 [1, 7]: -5.8 g
Average Body Weight (change), Day 15 [1, 7]: -5.6 g
Tumor Disappearance [1, 7]: 1/3
Average Tumor Size, Day 11 [1, 7]: 17 mm^3
Average Tumor Size, Day 15 [1, 7]: 26 mm^3
Average Tumor Size, Day 17 [1, 7]: 21 mm^3
Average Body Weight (change), Day 11 [1, 8]: -2.0 g
Average Body Weight (change), Day 13 [1, 8]: -3.2 g
Average Body Weight (change), Day 15 [1, 8]: -2.5 g
Tumor Disappearance [1, 8]: 1/2
Average Tumor Size, Day 11 [1, 8]: 33 mm^3
Average Tumor Size, Day 13 ([1]; dEpoB 50 mg/kg Q2D x 3, 6 hr i.v. infusion, control 128): 19 mm^3
Average Tumor Size, Day 15 [1, 8]: 6 mm^3
Average Tumor Size, Day 17 [1, 8]: 6 mm^3
Average Body Weight, Day 7 [1, 6]: 27.8 g
Average Body Weight, Day 7 [1, 7]: 29.3 g
Average Body Weight, Day 7 [1, 8]: 27.1 g
Average Tumor Size, Day 13 ([1]; mouse, in vivo): 21 mm^3 and 19 mm^3
IC50 [2]: 9.5 nM
IC50 ([2]; Table 1, XTT): 9 nM
IC50 ([2]; Table 1A, XTT, 72 h): 9.5 nM
IC50 ([2]; Table 6, single determinations): 9.5 nM
IC50 ([2]; Table 7, CEM): 9.5 nM
Average Body Weight (change), Day 9 [3, 9]: -1.7 g
Average Body Weight (change), Day 11 [3, 9]: -3.4 g
Average Body Weight (change), Day 13 [3, 9]: -2.7 g
Average Tumor Size (TC), Day 9 [3, 9]: 0.40 TC
Average Tumor Size (TC), Day 11 [3, 9]: 0.19 TC
Average Tumor Size (TC), Day 13 [3, 9]: 0.12 TC
Tumor Disappearance [3, 9]: 0/3
Therapeutic effect Rank Order ([3]; i.v. infusion (order wraps over rows r24-r25)): dEpoB >> VP-16
Therapeutic effect Rank Order ([3]; i.v./i.p. (order wraps over rows r11-r12)): Taxol ® > dEpoB >>
Lowest Average Tumor Size (T/C) [3, 10]: 0.12 T/C
Tumor Disappearance [3, 10]: 0
Therapeutic Effects dEpoB vs Taxol ([3]; PC-3 Prostate, dEpoB 40 mg/kg Q2D x 3 vs Taxol 15 mg/kg Q2D x 3): <<
Average Body Weight (change), Day 9 [3, 11]: -2.2 g
Average Body Weight (change), Day 11 [3, 11]: -5.9 g
Average Body Weight (change), Day 13 [3, 11]: -5.8 g
Average Tumor Size (TC), Day 9 [3, 11]: 0.17 TC
Average Tumor Size (TC), Day 11 [3, 11]: 0.06 TC
Average Tumor Size (TC), Day 13 [3, 11]: 0.06 TC
Tumor Disappearance [3, 11]: 0/3
Average Body Weight (change), Day 9 [3, 12]: -2.1 g
Average Body Weight (change), Day 11 [3, 12]: -3.0 g
Average Body Weight (change), Day 13 [3, 12]: -2.6 g
Average Tumor Size (TC), Day 9 [3, 12]: 0.37 TC
Average Tumor Size (TC), Day 11 [3, 12]: 0.13 TC
Average Tumor Size (TC), Day 13 [3, 12]: 0.03 TC
Tumor Disappearance [3, 12]: 0/3
Average Body Weight, Day 5 [3, 9]: 28.3 g
Average Body Weight, Day 5 [3, 11]: 29.4 g
Average Body Weight, Day 5 [3, 12]: 28.1 g
IC50 [4]: 21 nM
Average Tumor Volume (T/C) (B16 Melanoma; 20 mg/kg QD1-4,7-8, day 11): 0.33
mice died (B16 Melanoma; 20 mg/kg QDx6 from day 1 (FIG. 44)): 0 of 8
